According to ChEMBL document CHEMBL1132086, “Total synthesis of an antioxidant isolated from yeast via palladium-catalyzed coupling and its application for related compounds” (Bioorg Med Chem Lett, 1999):

species on record: Cavia porcellus; assay: Antioxidative activity was evaluated by using the lipid peroxidation of guinea pig liver microsomes; assay type: functional

| IC50 [µM] | Structure (SMILES) |
| --- | --- |
| 107 | COc1c2c(cc(O)c1-c1ccc(-c3ccccc3)cc1)OCO2 |
| 65 | COc1c2c(cc(O)c1-c1ccc(C)cc1)OCO2 |
| 98 | COc1c2c(cc(O)c1-c1cc3ccccc3o1)OCO2 |
| 56 | COc1ccc(-c2c(O)cc3c(c2OC)OCO3)cc1 |
| 44 | COc1c2c(cc(O)c1-c1cccs1)OCO2 |
| 83 | COc1c2c(cc(O)c1-c1ccccc1)OCO2 |
| 280 | Cc1c(C)c2c(c(C)c1O)CC[C@@](C)(CCC[C@H](C)CCC[C@H](C)CCCC(C)C)O2 [ALPHA-TOCOPHEROL] |
| 50 | CCCOC(=O)c1cc(O)c(O)c(O)c1 [PROPYL GALLATE] |
